Reference: paper PMC10100900, “Virtual Screening and In Vitro Experimental Verification of LuxS Inhibitors for Escherichia coli O157:H7” (Microbiology Spectrum, 2023)
Like-named read-outs stand apart in the source and are kept apart here.

Tests used:
LuxS of E. coli = target: T1, LuxS of E. coli (Escherichia coli O157:H7, UniProt Q8X902); assay: AI-2 bioluminescence assay (V. harveyi BB170 reporter) of AI-2 production; assay type: cell-based; details: E. coli O157:H7 cultured 16 h with inhibitor, supernatant read with V. harveyi BB170
T1 construct: endogenous in cells; host or cells: E. coli O157:H7 (ATCC 43895)
T1 sequence (Q8X902 2-171): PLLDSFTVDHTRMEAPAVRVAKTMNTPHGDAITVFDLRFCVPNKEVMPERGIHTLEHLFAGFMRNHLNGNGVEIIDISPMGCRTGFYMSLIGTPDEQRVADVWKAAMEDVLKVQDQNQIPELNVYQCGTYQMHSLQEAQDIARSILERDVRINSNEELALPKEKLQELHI

E. coli O157:H7 [1] = assay: Growth, microbroth dilution assay (OD600); assay type: cell-based, Escherichia coli O157:H7; details: 6.25 to 100 μM, 24 h, compared to the control
Procedure: As described for previous protocols, growth and metabolic activity were evaluated by the broth dilution method and an alamarBlue assay ([65], [66]). Briefly, 96-well plates were seeded with bacterial suspension (OD600 = 0.01) containing different concentrations of hit compounds and incubated at 37°C for 24 h. At 600 nm, the absorbance was measured using the Multiskan Go Reader (Thermo Fisher Scientific, USA).

E. coli O157:H7 biofilm = assay: Biofilm formation, crystal violet (CV) staining; assay type: cell-based, Escherichia coli O157:H7; details: 50 μM, 24 h
Procedure: Based on previous studies, CV staining was used to assess biofilm formation ([67]). The overnight cultured E. coli O157:H7 was diluted to OD600 of 0.01. The diluted E. coli suspensions were mixed with different concentrations of hit compounds and incubated at 37°C for 24 h. The plate was washed three times using PBS (pH 7.2) before it was fixed with methanol for 30 min. After staining for 30 min with CV, the plates were rinsed with distilled water and dried at 55°C. Finally, the CV attached to wells was dissolved in 95% ethanol. The absorbance at 570 nm was then measured using a Multiskan Go Reader.

LuxS = target: T2, LuxS (Escherichia coli O157:H7, UniProt Q8X902); assay: Surface plasmon resonance (BIAcore T200) binding
T2 sequence (Q8X902 2-171): T1 sequence (Q8X902 2-171)
Procedure: The binding affinity of the three compounds and LuxS was assessed by SPR assay using a BIAcore T200 (GE Healthcare, Pittsburgh, PA) ([64]). The LuxS protein was immobilized on a CM5 sensor chip with the final immobilization levels of 7,582.4 resonance units (RU). The running buffer used in the study was 1.0× phosphate-buffered saline containing detergent (PBS-P^+; pH 7.4) and 5% (vol/vol) dimethyl sulfoxide. For each binding cycle, the compound was injected for 120 s with a dissociation time of 180 s. A series of compound concentrations (0.94, 1.88, 3.75, 7.5, 15, and 30 μM) were injected for analysis, with furanone C30 as a positive control. Eventually, data were analyzed by Biacore evaluation software, whereas the equilibrium dissociation constant (KD = Kd/Ka) was calculated by curve fitting with a 1:1 binding model.

luxS gene = assay type: cell-based, E. coli
Caco-2 cells = assay: Cytotoxicity, CCK-8 assay; assay type: cell-based; details: 24 h
Procedure: The cytotoxicity of hit compounds was assessed by a CCK-8 assay in Caco-2 cells. At 37°C, Caco-2 cells (1 × 10^5 cells/mL) were seeded in a 96-well plate for 24 h. Further, different concentrations of hit compounds were added to 96-well plates at final concentrations of 6.25, 12.5, 25, 50, and 100 μM. After incubation for 24 h, the plate was incubated at 37°C for 1 h with 10 μL of CCK-8 (MCE, China). A Multiskan Go Reader (Thermo Fisher Scientific) was used to measure the absorbance at 450 nm.

E. coli O157:H7 [2] = assay: Metabolic activity, alamarBlue assay; details: 6.25 to 100 μM, 24 h, compared to the control
[3] = IC50, AI-2 bioluminescence assay

SMILES | IC50 (LuxS of E. coli; [3]) [µM] | further results
O=C(NCc1nc2ccccc2[nH]1)c1ccccc1 [0180-0358] | 22.5 | 
CCOc1ccc(NCC(=O)N/N=C/c2c[nH]c3ccccc23)cc1 [1761-1352] | 29.2 | 
O=C(N/N=C/c1ccc(O)c(O)c1)c1cc(-c2ccc3ccccc3c2)n[nH]1 [3254-3286] | 7.57 | effect on growth of E. coli (E. coli O157:H7 [1]): no significant effect; biofilm formation, increased by about (E. coli O157:H7 biofilm): ~81.12%; Kd (LuxS): 18.5 µM; suppression of the expression of LuxS (luxS gene): ~57.4%; cytotoxicity to Caco-2 cells (Caco-2 cells; 6.25 to 100 μM): nontoxic; effect on metabolic activity of E. coli (E. coli O157:H7 [2]): no significant effect
COc1ccc2[nH]c(C(=O)NC3CCC(CN4Cc5ccccc5C4=O)CC3)c(C)c2c1 (stereo not shown) [D753-0186] | 18.8 | 
Cc1ccc2ccc3cc(C(=O)NCCN4CCN(c5cccc(Cl)c5)CC4)[nH]c3c2n1 [E941-0195] | 28.5 | 
O=C(NCCN1CCN(c2cccc(Cl)c2)CC1)c1cc2ccc3cccnc3c2[nH]1 [E950-0195] | 32.8 | 
O=C(NCCN1CCN(c2ccccc2F)CC1)c1cc2ccc3cccnc3c2[nH]1 [E950-0198] | 30.9 | 
Cc1cc(CNC(=O)Nc2cccc3c2CCCC3)c(C)n1-c1ccccc1 [E983-1808] | 21.9 | 
NC1=C(c2nc3ccccc3s2)C(=O)CN1c1cccc(C(=O)NCc2ccccc2)c1 [F187-0533] | 13.6 | 
Cc1[nH]c(C(=O)NC2CCCCC2)c(C)c1S(=O)(=O)N1CCCCCC1 [F379-1612] | 26.1 | 
COc1ccc(C(=O)Nc2cc(NC(=O)c3cc4ccccc4[nH]3)ccc2OC)cc1 [F603-0744] | 12.3 | 
O=C(NCC1CCN(Cc2ccc(Cl)cc2)CC1)c1n[nH]c2c1COc1ccccc1-2 [G365-0523] | 12.2 | 
COc1cccc(NC(=O)CSCc2cc(=O)c3ccccc3[nH]2)c1 [G751-0153] | 16.8 | 
CCc1ccc(NC(=O)CSCc2cc(=O)c3cccc(F)c3[nH]2)cc1 [G751-5415] | 26.4 | 
CCc1ccc(NC(=O)CSCc2cc(=O)c3cc(CC)ccc3[nH]2)cc1 [G751-5495] | 24.8 | 
Cc1ccc(C(=O)N2CCc3cc(CNC(=O)c4ccc(C#N)cc4)ccc32)cc1 [G883-0304] | 19 | 

SMILES | IC50 (LuxS of E. coli; [3]) [µM] | further results
Cc1ccc(C(=O)N2CCc3cc(CNC(=O)c4ccc(Br)cc4)ccc32)cc1 [G883-0331] | 15 | 
Cc1ccc(C(=O)NCc2ccc3c(c2)CCN3C(=O)c2ccc(Cl)cc2)cc1 [G883-0476] | 18.6 | 
O=C(NCc1ccc2c(c1)CCN2C(=O)c1ccccc1)c1ccc(Cl)cc1 [G883-0595] | 18.6 | 
O=C(NCc1ccc2c(c1)CCN2C(=O)c1ccccc1)c1ccc(Br)cc1 [G883-0627] | 19.6 | 
O=C(NCc1ccc2c(c1)CCN2C(=O)c1ccc(F)cc1)c1cc2ccccc2[nH]1 [G883-0849] | 21.8 | 
CC(C)C(=O)N1CCc2cc(CNC(=O)c3cc4ccccc4[nH]3)ccc21 [G883-2010] | 24.9 | 
O=C(NCc1nc(-c2ccc3c(c2)ncn3C2CCCC2)no1)c1ccccc1 [G945-0601] | 13.4 | 
O=C(NC1CCN(Cc2ccccc2)CC1)c1ccc(-c2cc(N3CCCC3)ncn2)cc1 [L010-0050] | 20.4 | 
CSc1ccc(CNC(=O)c2cccc(-c3cnc(N4CCCC4)nc3)c2)cc1 [L368-0079] |  | IC50 (LuxS of E. coli; AI-2 bioluminescence assay): 7.01 µM; biofilm formation, increased by about (E. coli O157:H7 biofilm): ~76.8%
CCC(=O)N1CCc2cc(-c3ccc(C(=O)NC4CCN(Cc5ccccc5)CC4)cc3)ccc21 [L413-0101] | 13.3 | 
CCC(=O)N1CCc2cc(-c3ccc(C(=O)NCc4ccc(N(C)C)cc4)cc3)ccc21 [L413-0180] | 4.03 | effect on growth of E. coli (E. coli O157:H7 [1]): no significant effect; biofilm formation, increased by about (E. coli O157:H7 biofilm): ~51.4%; Kd (LuxS): 77.7 µM; suppression of the expression of LuxS (luxS gene): ~65.1%; cytotoxicity to Caco-2 cells (Caco-2 cells; 100 μM): slightly cytotoxic; cytotoxicity to Caco-2 cells (Caco-2 cells; 6.25 to 50 μM): nontoxic; effect on metabolic activity of E. coli (E. coli O157:H7 [2]): no significant effect
CSc1ccc(CNC(=O)C2=Cc3cc(-c4ccccc4)ccc3OC2)cc1 [L449-1159] |  | IC50 (LuxS of E. coli; AI-2 bioluminescence assay): 8.64 µM; biofilm formation, increased by about (E. coli O157:H7 biofilm): about 75.4%
CCCn1cnc2cc(CNC(=O)c3cc4cc(Cl)ccc4[nH]3)ccc21 [M414-3326] |  | IC50 (LuxS of E. coli; AI-2 bioluminescence assay): 9.62 µM; effect on growth of E. coli (E. coli O157:H7 [1]): no significant effect; biofilm formation, increased by about (E. coli O157:H7 biofilm): ~53.6%; Kd (LuxS; read-out: equilibrium dissociation constant (KD), LuxS immobilized on CM5 chip, PBS-P+ pH 7.4, 5% DMSO, 1:1 binding model): 1.92 µM; suppression of the expression of LuxS (luxS gene): about 59.9%; cytotoxicity to Caco-2 cells (Caco-2 cells; 6.25 to 100 μM): nontoxic; effect on metabolic activity of E. coli (E. coli O157:H7 [2]): no significant effect
CCCc1c(C)c2ccc(OC(=O)CNC(=O)c3ccccc3)cc2oc1=O [Y040-2389] | 12.8 | 
O=C1C=C(Br)/C(=C/Br)O1 [furanone C30, reference compound] |  | Kd (LuxS; LuxS immobilized on CM5 chip, PBS-P+ pH 7.4, 5% DMSO, 1:1 binding model, read-out: equilibrium dissociation constant (KD)): 0.345 µM
